SMILES strings stand for the structures.

The assay addresses human RIP1 kinase domain (2-375) (Homo sapiens (Human), UniProt Q13546). Kind of assay: RIP1 kinase inhibition biochemical assay (Transcreener ADP, fluorescence polarization). As to conditions: Ki app from tight-binding Morrison equation; 50 nM enzyme, 50 uM ATP, 2 hours incubation. The procedure, abridged: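 Baculovirus-expressed human RIP1 kinase domain (2-375), 50 nM, incubated 2 h with compounds in pH 7.5 Hepes, 30 mM MgCl2, 50 uM ATP, 0.5% DMSO. ADP detected by Transcreener fluorescence-polarization tracer displacement; Ki^app from Morrison tight-binding fit.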
For orientation: In fluorescence polarisation assays a small probe gives low polarisation when free and higher when bound to something large.

human RIP1 kinase domain (2-375), sequence (Q13546 2-375): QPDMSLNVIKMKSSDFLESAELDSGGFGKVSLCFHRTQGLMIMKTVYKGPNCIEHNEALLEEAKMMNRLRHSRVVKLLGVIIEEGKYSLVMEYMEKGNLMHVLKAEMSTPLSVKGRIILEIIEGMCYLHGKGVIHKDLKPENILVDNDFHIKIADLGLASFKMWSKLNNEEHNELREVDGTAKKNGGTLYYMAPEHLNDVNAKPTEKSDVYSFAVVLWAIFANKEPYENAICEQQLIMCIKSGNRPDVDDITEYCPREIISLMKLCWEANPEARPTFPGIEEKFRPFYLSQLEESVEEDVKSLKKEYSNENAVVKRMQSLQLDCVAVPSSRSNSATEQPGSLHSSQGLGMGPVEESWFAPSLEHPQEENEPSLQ

For `O=S(=O)(CF)c1nc2n(n1)[C@H](c1ccccc1)C[C@@H]2F` (single isomer, unassigned) [Example 72], the Ki was found to be 23 nM.

Regarding `O=S(=O)(c1nc2n(n1)[C@H](c1cccc(Cl)c1)C[C@@H]2F)C(F)F` (single isomer, unassigned) [Example 61], the Ki amounted to 39 nM. The result for `O=S(=O)(c1nc2n(n1)[C@H](c1ccccc1)C[C@@H]2F)[C@H]1CC1(F)F` [Example 130, (5S,7S)-2-(((S)-2,2-difluorocyclopropyl)sulfonyl)-7-fluoro-5-phenyl-6,7-dihydro-5H-pyrrolo[1,2-b][1,2,4]triazole] reads 3 nM.

`O=S(=O)(c1nc2n(n1)[C@H](c1cc(F)cc(Cl)c1)C[C@@H]2F)C(F)F` (single isomer, unassigned) [Example 215] showed a Ki of 32 nM. As for `CC(C)(C)[S+]([O-])c1nc2n(n1)[C@H](c1ccccc1)C[C@@H]2F` (stereo partly drawn) [Example 24, (5S,7S)-2-(tert-butylsulfinyl)-7-fluoro-5-phenyl-6,7-dihydro-5H-pyrrolo[1,2-b][1,2,4]triazole], the Ki worked out at 20 nM. For `O=S(=O)(c1nc2n(n1)[C@H](c1ccccc1)C[C@@H]2F)C1CC(F)(F)C1` (single isomer, unassigned) [Example 50] the value was 17 nM; for `O=S(=O)(CCO)c1nc2n(n1)[C@H](c1ccccc1)C[C@@H]2F` (single isomer, unassigned) [Example 223], 190 nM. For `N#C[C@H]1C[C@H](S(=O)(=O)c2nc3n(n2)[C@H](c2ccccc2)C[C@@H]3F)C1` [Example 211, trans-3-[[(5S,7S)-7-Fluoro-5-phenyl-6,7-dihydro-5H-pyrrolo[1,2-b][1,2,4]triazol-2-yl]sulfonyl]cyclobutanecarbonitrile] the value was 12 nM; for `O=S(=O)(c1nc2n(n1)[C@H](c1cccc(F)c1F)C[C@@H]2F)C1CC1F` (stereo in doubt) [Example 216, (5S,7S)-5-(2,3-difluorophenyl)-7-fluoro-2-[(1S,2S)-2-fluorocyclopropyl]sulfonyl-6,7-dihydro-5H-pyrrolo[1,2-b][1,2,4]triazole], < 5 nM. As to `O=S(=O)(c1nc2n(n1)[C@H](c1cccc(F)c1)C[C@@H]2F)[C@@H]1C[C@H]1F` (single isomer, unassigned) [Example 142], the Ki is < 5 nM. Regarding `N#Cc1ccccc1[C@@H]1C[C@H](F)c2nc(S(=O)(=O)C(F)F)nn21` (single isomer, unassigned) [Example 62], the Ki came out at 266 nM. The result for `O=S(=O)(c1nc2n(n1)[C@H](c1ccccc1)C[C@@H]2F)C1(C(F)F)CC1` (single isomer, unassigned) [Example 155] reads 4.8 nM; that for `O=S(=O)(c1nc2n(n1)[C@H](c1cc(Cl)ccc1F)C[C@@H]2F)C1CC1F` (stereo in doubt) [Example 207, (5S,7S)-5-(5-chloro-2-fluoro-phenyl)-7-fluoro-2-[(1S,2S)-2-fluorocyclopropyl]sulfonyl-6,7-dihydro-5H-pyrrolo[1,2-b][1,2,4]triazole], 37 nM.

`[O-][S@@+](c1nc2n(n1)[C@H](c1ccccc1Cl)CC2)C(F)F` [Example 17, (5S)-5-(2-chlorophenyl)-2-[(S)-difluoromethylsulfinyl]-6,7-dihydro-5H-pyrrolo[1,2-b][1,2,4]triazole] registered a Ki of 50 nM. The molecule `CC1(S(=O)(=O)c2nc3n(n2)[C@H](c2ccccc2)C[C@@H]3F)CC1(F)F` (stereo partly drawn) [Example 167, (5S,7S)-2-((2,2-difluoro-1-methylcyclopropyl)sulfonyl)-7-fluoro-5-phenyl-6,7-dihydro-5H-pyrrolo[1,2-b][1,2,4]triazole] returned a Ki of 12 nM. For `O=S(=O)(c1nc2n(n1)C(c1cc(F)cc(F)c1)CC2)C(F)F` (racemic) [Example 175, 2-(Difluoromethylsulfonyl)-5-(3,5-difluorophenyl)-6,7-dihydro-5H-pyrrolo[1,2-b][1,2,4]triazole] the value was 220 nM; for `O=S(=O)(c1nc2n(n1)[C@H](c1cc(Cl)ccc1F)C[C@@H]2F)C1CC1` (single isomer, unassigned) [Example 47], 67 nM.

(Values after US11072617B2, “Bicyclic sulfones and sulfoxides and methods of use thereof” (Genentech, Inc., priority 2017, dated 2021).)
